Reference: the NIST ThermoML archive (doi:10.1016/j.jct.2016.03.020)

Settings: Liquid, Gas chromatography

Compound: Cc1coc2c1CC[C@@H](C)C2 [(R)-menthofuran]
- vapor or sublimation pressure (298.15 K): 0.036 kPa
- vapor or sublimation pressure (374.3 K): 2.93 kPa
- vapor or sublimation pressure (380 K): 3.76 kPa
- vapor or sublimation pressure (400 K): 8.37 kPa
- vapor or sublimation pressure (420 K): 17.06 kPa
- vapor or sublimation pressure (482.4 K): 101.23 kPa
